The nature of series [1]: Bleeding events (ISTH definition) in NVAF patients receiving apixaban; association by odds ratio. In kind it is in vivo, human. The procedure:
The severity of bleeding was evaluated based on the definition provided by the International Society on Thrombosis and Hemostasis. In brief, events leading to a reduction in hemoglobin levels by at least 2 g/dL, fatal bleeding, or events occurring in critical body locations were considered major bleeding events. Events that required hospitalization, medical or surgical intervention, or a change in antithrombotic treatment were considered clinically relevant non-major. Any acute bleeding event not meeting the criteria for major or clinically relevant non-major bleeding was classified as a minor bleeding episode.
In all enrolled patients, allele-specific real-time PCR was used to identify polymorphic variants of ABCB1 (rs1045642 3435C>T, rs2032582 2677G>T/A, rs1128503 1236C>T), CYP3A4*22 (rs35599367), and CYP3A5*3 (rs776746, 6986A>G). Commercial kits (OOO Syntol, Moscow, Russia) were employed on a CFX96 Touch™ Real-Time PCR Detection System (Bio-Rad, Hercules, CA, USA).
The study data were subjected to statistical processing using both parametric and nonparametric methods. Statistical analyses were performed with the standard software package StatSoft Statistica 10.0 (Dell, Round Rock, TX, USA). Quantitative variables were assessed for normality using the Kolmogorov–Smirnov test (for sample sizes > 50), as well as by evaluating skewness and kurtosis. For quantitative variables with a normal distribution, the data were organized into variational series, and arithmetic means (M) with standard deviations (SD) were calculated. Comparisons of means in normally distributed quantitative datasets were performed using Student’s t-test, with obtained values evaluated against critical thresholds. For categorical variables, differences in frequency distributions were assessed using the χ^2 test, and Fisher’s exact test was applied when the number of observations was small. To quantify the effect of genetic markers on complication occurrence, odds ratios (ORs) with 95% confidence intervals (CIs) were calculated. Statistical significance for all analyses was defined at p < 0.05. For genetic analyses, multiple-testing correction was performed using the Benjamini–Hochberg false discovery rate (FDR) procedure.

The conditions of series [2]: cited from earlier work.

`COc1ccc(-n2nc(C(N)=O)c3c2C(=O)N(c2ccc(N4CCCCC4=O)cc2)CC3)cc1` [apixaban]: in series [1] (both, human, in vivo), the “Bleeding event in the context of surgery” value worked out at 1 case; the Epistaxis is 31 cases; the Gastrointestinal bleeding is given as 3 cases; the Hematomas and ecchymoses was found to be 3 cases. Further, in series [1] (both, human, in vivo), the Peptic ulcer exacerbation was 1 case and the Uterine bleeding worked out at 1 case. Besides, the “OR of bleeding events by sex” value in series [1] (both, human, in vivo, 1.95 years) was found to be 1.119. For the same compound, in series [2], the “Interindividual variability in exposure” value is on record as roughly 30% and the “Intraindividual variability in exposure” value is given as “approximately 20%”.

For the compound `CCC(C)(C)C(=O)O[C@H]1C[C@@H](C)C=C2C=C[C@H](C)[C@H](CC[C@@H]3C[C@@H](O)CC(=O)O3)[C@H]21` [simvastatin], in series [1] (simvastatin (n = 8) as co-medication with apixaban), the “Association with incidence of bleeding events” value is on record as “did not show an increase in incidence of bleeding events”.

These data come from article PMC12562637 (Genes, 2025).
